This passage reports IC50 results from US9783527B2, “Indazole ureas and method of use” (AbbVie Inc., priority 2014, dated 2017).

Assay [1] addresses human Nav1.8 (Homo sapiens (Human), UniProt Q9Y5Y9). The experiment in a line: FRET-based membrane potential assay, recombinant human sodium channel Nav1.8. The assay is classed as cell-based. The note with it: HEK293 cells stably expressing recombinant human Nav1.8; depolarization with veratridine (EC80) + scorpion venom. The protocol: FRET-Based Membrane Potential Assays.
Recombinant, Human Sodium Channel, Nav1.8.
Two days prior to the experiment, frozen HEK293 cells stably expressing recombinant human Nav1.8 (Essen, Ann Arbor, Mich.) were quickly thawed and plated at 22,500 cells/well in growth medium [MEM (Invitrogen #11095) with 10% FBS (Invitrogen #10082), 1 mM sodium pyruvate (Invitrogen, #C11360), 10 units/mL penicillin/10 U/mL streptomycin/29.2 μg/mL glutamine ((PSG 1%, Invitrogen #10378), 400 μg/mL zeocin (Invitrogen #R250) in black-walled, clear-bottom 384-well poly-D-lysine-coated assay plates (Greiner Bio-One, Frickenhausen, Germany) and incubated in a humidified 5% CO2 incubator at 37° C. On the day of the assay, medium was removed by aspiration, and cells were washed with assay buffer [HBSS (Invitrogen, Carlsbad, Calif.) containing 20 mM HEPES (Invitrogen, Carlsbad, Calif.)]. After washing, 30 μL assay buffer containing the fluorescent voltage-sensor probe CC2-DMPE (Invitrogen, Carlsbad, Calif.) at 20 μM and 0.01% pluronic F-127 (Invitrogen, Carlsbad, Calif.) was added to the cells. Cells were incubated for 40 minutes at room temperature in the dark. Following the incubation, the cells were washed and 30 μL assay buffer containing 2.5 μM DiSBAC2(3) substrate (Invitrogen, Carlsbad, Calif.) and 0.5 mM VABSC-1 (Invitrogen, Carlsbad, Calif.) was added to the cells. The cells were incubated for 60 minutes at room temperature in the dark. Fluorescence readings were made using a FLIPR®^TETRA (Molecular Devices, Sunnyvale Calif.) equipped with voltage-sensor probe optics. The depolarizing agent, veratridine (Sigma-Aldrich, St. Louis, Mo.), was made up at 3× concentrations in assay buffer containing 1 mg/mL scorpion venom (SVqq, from Leiurus quinquestriatus; Sigma-Aldrich, St. Louis, Mo.). The assay agonist/opener concentration was determined each day using a 6-point veratridine concentration curve in duplicate, tested with three concentrations of tetracaine (0.1, 0.06, 0.01 μM all in 0.03% dimethyl sulfoxide) and 0.03% dimethyl sulfoxide control in assay buffer. […] Test compounds in the daughter plate were diluted to (˜3×) solutions in assay buffer immediately before assaying. Using the FLIPR®^TETRA, 20 μL of the (3×) compound solutions were first added to the cells, then 20 μL of depolarizing solution (3×EC80 veratridine+SVqq) were added 3 minutes later to activate the channel. Changes in fluorescence were measured at wavelengths of 440-480 nm and 565-625 nm over the course of the experimental run. Membrane depolarization was expressed as a ratio of the maximum F440-480 nm/F565-625 nm reading above average baseline F440-480 nm/F565-625 nm reading. IC50 values were calculated from curve fits of the ratio data using a four-parameter logistic Hill equation (Accelrys Assay Explorer 3.3 Client, Accelrys, San Diego, Calif.) with percent inhibition plotted against compound concentration.

Assay [2] deals with human Nav1.7 (Homo sapiens (Human), UniProt Q15858). The experiment in a line: FRET-based membrane potential assay, recombinant human sodium channel Nav1.7. It is filed as cell-based. The settings on record: HEK293 cells stably expressing recombinant human Nav1.7; depolarization with veratridine (EC80) + scorpion venom. In a few lines:
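IC50 derived by four-parameter Hill fit of percent inhibition of depolarization, measured as peak F440-480/F565-625 ratio over baseline. Stable human Nav1.7 HEK293 cells, dye-loaded with CC2-DMPE and DiSBAC2(3)/VABSC-1 at room temperature, received compound 3 min ahead of veratridine (EC80) plus scorpion venom.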

human Nav1.7, sequence (Q15858 whole entry): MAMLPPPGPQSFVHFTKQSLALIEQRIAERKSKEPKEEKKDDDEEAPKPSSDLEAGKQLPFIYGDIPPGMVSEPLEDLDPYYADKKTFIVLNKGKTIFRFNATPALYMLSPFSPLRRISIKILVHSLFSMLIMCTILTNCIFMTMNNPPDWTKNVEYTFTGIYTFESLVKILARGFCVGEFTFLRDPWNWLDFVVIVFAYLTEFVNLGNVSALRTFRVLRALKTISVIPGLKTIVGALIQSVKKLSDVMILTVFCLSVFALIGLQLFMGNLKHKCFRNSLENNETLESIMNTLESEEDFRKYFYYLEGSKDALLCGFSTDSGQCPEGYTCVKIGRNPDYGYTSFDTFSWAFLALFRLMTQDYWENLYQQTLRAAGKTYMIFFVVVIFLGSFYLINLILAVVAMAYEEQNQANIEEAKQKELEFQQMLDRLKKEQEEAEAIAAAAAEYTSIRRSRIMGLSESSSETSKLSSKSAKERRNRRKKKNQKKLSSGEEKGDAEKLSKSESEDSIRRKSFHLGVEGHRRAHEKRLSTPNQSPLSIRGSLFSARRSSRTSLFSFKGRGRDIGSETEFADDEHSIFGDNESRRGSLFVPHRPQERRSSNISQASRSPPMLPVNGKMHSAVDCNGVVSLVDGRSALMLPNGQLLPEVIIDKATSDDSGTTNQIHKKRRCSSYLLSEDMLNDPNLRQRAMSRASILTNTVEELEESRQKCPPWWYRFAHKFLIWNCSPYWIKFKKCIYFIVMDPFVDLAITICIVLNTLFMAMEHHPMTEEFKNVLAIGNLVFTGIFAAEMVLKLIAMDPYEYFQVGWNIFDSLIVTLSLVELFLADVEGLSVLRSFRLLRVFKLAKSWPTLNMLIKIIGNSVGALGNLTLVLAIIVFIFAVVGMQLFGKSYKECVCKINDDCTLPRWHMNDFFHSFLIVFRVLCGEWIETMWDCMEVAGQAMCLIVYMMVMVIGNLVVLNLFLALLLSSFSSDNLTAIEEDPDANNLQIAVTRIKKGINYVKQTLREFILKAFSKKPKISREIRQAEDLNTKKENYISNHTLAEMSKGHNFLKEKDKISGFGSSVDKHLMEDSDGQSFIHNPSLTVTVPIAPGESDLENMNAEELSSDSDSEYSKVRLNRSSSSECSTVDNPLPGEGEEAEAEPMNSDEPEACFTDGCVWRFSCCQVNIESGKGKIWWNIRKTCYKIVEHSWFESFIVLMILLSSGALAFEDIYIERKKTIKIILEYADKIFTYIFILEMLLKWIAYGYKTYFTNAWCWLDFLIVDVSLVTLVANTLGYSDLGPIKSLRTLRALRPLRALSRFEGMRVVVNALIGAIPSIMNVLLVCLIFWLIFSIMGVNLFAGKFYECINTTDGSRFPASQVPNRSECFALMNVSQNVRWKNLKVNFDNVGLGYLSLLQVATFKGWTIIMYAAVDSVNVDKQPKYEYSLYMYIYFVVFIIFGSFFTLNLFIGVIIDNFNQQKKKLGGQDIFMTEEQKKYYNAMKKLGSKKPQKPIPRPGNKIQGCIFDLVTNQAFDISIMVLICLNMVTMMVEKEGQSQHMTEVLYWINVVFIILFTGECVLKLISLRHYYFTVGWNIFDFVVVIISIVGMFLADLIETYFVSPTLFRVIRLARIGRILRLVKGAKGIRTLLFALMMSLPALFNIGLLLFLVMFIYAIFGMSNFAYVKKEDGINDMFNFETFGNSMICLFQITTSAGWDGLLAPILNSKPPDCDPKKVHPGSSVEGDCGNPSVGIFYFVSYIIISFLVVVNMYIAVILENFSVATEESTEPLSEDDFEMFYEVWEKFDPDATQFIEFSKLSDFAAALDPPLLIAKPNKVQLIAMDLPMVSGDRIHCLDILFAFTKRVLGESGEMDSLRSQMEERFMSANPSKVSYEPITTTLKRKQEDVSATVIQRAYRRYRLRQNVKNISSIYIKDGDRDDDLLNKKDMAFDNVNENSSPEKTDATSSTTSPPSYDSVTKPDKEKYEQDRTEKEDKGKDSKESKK
human Nav1.8, sequence (Q9Y5Y9 whole entry): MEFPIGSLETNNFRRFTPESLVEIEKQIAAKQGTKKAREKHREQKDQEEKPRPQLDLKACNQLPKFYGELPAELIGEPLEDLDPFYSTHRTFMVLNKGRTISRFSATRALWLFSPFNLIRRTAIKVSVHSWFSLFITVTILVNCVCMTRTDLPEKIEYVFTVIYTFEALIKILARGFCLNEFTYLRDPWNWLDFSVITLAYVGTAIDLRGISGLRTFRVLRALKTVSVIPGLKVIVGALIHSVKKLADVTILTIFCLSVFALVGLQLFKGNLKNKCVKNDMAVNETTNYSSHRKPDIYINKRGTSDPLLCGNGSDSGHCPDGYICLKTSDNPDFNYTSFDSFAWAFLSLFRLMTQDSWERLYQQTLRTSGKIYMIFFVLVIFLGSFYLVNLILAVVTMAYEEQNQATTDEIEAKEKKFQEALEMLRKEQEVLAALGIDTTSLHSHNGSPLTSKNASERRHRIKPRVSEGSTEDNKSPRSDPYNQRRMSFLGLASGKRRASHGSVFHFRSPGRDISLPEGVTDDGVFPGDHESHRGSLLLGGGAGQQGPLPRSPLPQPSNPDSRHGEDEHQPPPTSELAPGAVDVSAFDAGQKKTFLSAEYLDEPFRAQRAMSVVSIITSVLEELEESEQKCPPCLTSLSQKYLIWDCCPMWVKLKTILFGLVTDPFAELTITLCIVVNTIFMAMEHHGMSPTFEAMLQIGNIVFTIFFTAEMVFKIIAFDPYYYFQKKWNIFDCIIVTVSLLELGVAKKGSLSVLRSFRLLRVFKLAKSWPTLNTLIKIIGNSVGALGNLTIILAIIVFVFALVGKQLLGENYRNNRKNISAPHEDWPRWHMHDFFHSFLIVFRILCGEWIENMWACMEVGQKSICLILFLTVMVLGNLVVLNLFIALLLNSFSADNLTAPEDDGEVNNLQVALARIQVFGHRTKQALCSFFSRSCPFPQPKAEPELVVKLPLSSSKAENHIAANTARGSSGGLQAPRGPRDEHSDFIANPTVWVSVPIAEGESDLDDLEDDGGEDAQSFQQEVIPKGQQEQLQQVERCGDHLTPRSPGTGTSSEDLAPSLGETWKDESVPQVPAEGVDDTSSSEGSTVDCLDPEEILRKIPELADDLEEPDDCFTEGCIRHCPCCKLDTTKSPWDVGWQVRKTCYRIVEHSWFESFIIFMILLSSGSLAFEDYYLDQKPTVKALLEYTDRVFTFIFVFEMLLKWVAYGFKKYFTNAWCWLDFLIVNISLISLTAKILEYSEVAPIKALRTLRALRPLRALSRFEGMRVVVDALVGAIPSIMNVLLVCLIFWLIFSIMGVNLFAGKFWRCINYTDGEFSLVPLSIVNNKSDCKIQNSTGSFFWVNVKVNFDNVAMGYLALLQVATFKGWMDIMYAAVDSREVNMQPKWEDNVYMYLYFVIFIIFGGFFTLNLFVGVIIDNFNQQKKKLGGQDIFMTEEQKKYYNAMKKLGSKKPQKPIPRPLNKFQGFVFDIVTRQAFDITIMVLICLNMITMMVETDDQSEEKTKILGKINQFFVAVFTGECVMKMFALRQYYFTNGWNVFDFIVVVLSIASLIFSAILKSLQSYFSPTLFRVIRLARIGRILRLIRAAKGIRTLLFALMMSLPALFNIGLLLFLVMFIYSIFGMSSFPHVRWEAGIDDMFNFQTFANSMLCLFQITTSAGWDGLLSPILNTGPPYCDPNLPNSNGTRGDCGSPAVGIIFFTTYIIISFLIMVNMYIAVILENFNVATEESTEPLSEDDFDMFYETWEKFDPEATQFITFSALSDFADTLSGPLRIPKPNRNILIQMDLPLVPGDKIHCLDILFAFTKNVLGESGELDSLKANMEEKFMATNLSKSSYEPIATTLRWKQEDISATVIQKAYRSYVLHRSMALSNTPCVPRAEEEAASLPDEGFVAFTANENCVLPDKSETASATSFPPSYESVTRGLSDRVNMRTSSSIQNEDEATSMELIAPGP

In general, IC50 refers to the concentration needed to halve the response being measured. For `CN(C(=O)CN1CCN(c2cccc3c2cnn3-c2ccccc2F)C1=O)C1CCC1` [Example 351, N-cyclobutyl-2-{3-[1-(2-fluorophenyl)-1H-indazol-4-yl]-2-oxoimidazolidin-1-yl}-N-methylacetamide], the IC50 in assay [1] was determined as 1850 nM; in assay [2] it was 3480 nM. On to `O=C(CN1CCN(c2cccc3c2cnn3-c2ccccc2F)C1=O)NC1CC(=NO)C1` (centres unmarked) [Example 354, 2-{3-[1-(2-fluorophenyl)-1H-indazol-4-yl]-2-oxoimidazolidin-1-yl}-N-[3-(hydroxyimino)cyclobutyl]acetamide], for which the values for the IC50 in assay [1] and in assay [2] were 16600 nM and 6500 nM, respectively. With `CC(C)(C)OC(=O)CCN1CCN(c2cccc3c2cnn3-c2ccccc2F)C1=O` [Example 289, tert-butyl 3-{3-[1-(2-fluorophenyl)-1H-indazol-4-yl]-2-oxoimidazolidin-1-yl}propanoate], the IC50 is 2050 nM in assay [1] and 2710 nM in assay [2]. For `O=C(CN1CCN(c2cccc3c2cnn3-c2ccccc2F)C1=O)NC1(C(F)(F)F)CCC1` [Example 353, 2-{3-[1-(2-fluorophenyl)-1H-indazol-4-yl]-2-oxoimidazolidin-1-yl}-N-[1-(trifluoromethyl)cyclobutyl]acetamide], the IC50 in assay [1] stood at 1690 nM; in assay [2] it was 3310 nM. On the same counts, the results for `O=C1CCCC[C@@H]1N1CCN(c2cccc3c2cnn3-c2ccccc2F)C1=O` [Example 281, 1-[1-(2-fluorophenyl)-1H-indazol-4-yl]-3-[(1S)-2-oxocyclohexyl]imidazolidin-2-one] are 12400 nM and 11600 nM. The matching figures for `O=C(CN1CCN(c2cccc3c2cnn3-c2ccccc2F)C1=O)N[C@H]1CCC[C@@H]1OCc1ccccc1` [Example 334, N-[(1S,2S)-2-(benzyloxy)cyclopentyl]-2-{3-[1-(2-fluorophenyl)-1H-indazol-4-yl]-2-oxoimidazolidin-1-yl}acetamide]: 657 nM and 1930 nM. As to `O=C(CN1CCN(c2cccc3c2cnn3-c2ccccc2F)C1=O)NC1CC(O)C1` (centres unmarked) [Example 350, 2-{3-[1-(2-fluorophenyl)-1H-indazol-4-yl]-2-oxoimidazolidin-1-yl}-N-(3-hydroxycyclobutyl)acetamide], the values for the IC50 in assay [1] and in assay [2] were 12300 nM and 9220 nM, respectively. The matching figures for `CCCS(=O)(=O)N1CC(N2CCN(c3cccc4c3cnn4-c3ccccc3F)C2=O)C1` [Example 274, 1-[1-(2-fluorophenyl)-1H-indazol-4-yl]-3-[1-(propylsulfonyl)azetidin-3-yl]imidazolidin-2-one]: 1400 nM and 2740 nM. Take `O=C(CN1CCN(c2cccc3c2cnn3-c2ccccc2F)C1=O)N1CCOCC1` [Example 293, 1-[1-(2-fluorophenyl)-1H-indazol-4-yl]-3-[2-(morpholin-4-yl)-2-oxoethyl]imidazolidin-2-one]: the IC50 in assay [1] stood at 17600 nM; in assay [2], 3670 nM.

In the case of `O=C(CN1CCN(c2cccc3c2cnn3-c2ccccc2F)C1=O)NC1CCCC1` [Example 323, N-cyclopentyl-2-{3-[1-(2-fluorophenyl)-1H-indazol-4-yl]-2-oxoimidazolidin-1-yl}acetamide], the IC50 in assay [1] came out at 695 nM; in assay [2] it was 1460 nM. `O=C1N(c2cccc3c2cnn3-c2ccccc2F)CCN1C1CN(S(=O)(=O)CC(F)(F)F)C1` [Example 284, 1-[1-(2-fluorophenyl)-1H-indazol-4-yl]-3-{1-[(2,2,2-trifluoroethyl)sulfonyl]azetidin-3-yl}imidazolidin-2-one]: the IC50 in assay [1] was determined as 1190 nM; in assay [2], 2430 nM. On the same counts, the results for `CC(C)[C@H](NC(=O)CN1CCN(c2cccc3c2cnn3-c2ccccc2F)C1=O)C(=O)NC(C)(C)C` [Example 346, N-tert-butyl-N^2-({3-[1-(2-fluorophenyl)-1H-indazol-4-yl]-2-oxoimidazolidin-1-yl}acetyl)-L-valinamide] are 960 nM and 2040 nM. Consider `O=C(/C=C/N1CCN(c2cccc3c2cnn3-c2ccccc2F)C1=O)N1CC[C@H](F)C1` [Example 327, 1-[1-(2-fluorophenyl)-1H-indazol-4-yl]-3-{(1E)-3-[(3S)-3-fluoropyrrolidin-1-yl]-3-oxoprop-1-en-1-yl}imidazolidin-2-one], for which the concentration for half-maximal inhibition (IC50) in assay [1] turned out to be 678 nM; in assay [2] it was 2890 nM.

In the case of `O=C(CN1CCN(c2cccc3c2cnn3-c2ccccc2F)C1=O)N1CCCCCC1` [Example 303, 1-[2-(azepan-1-yl)-2-oxoethyl]-3-[1-(2-fluorophenyl)-1H-indazol-4-yl]imidazolidin-2-one], the figures for the IC50 in assay [1] and in assay [2] were 930 nM and 2460 nM, respectively. Regarding `O=C1N(c2cccc3c2cnn3-c2ccccc2F)CCN1C1CN(S(=O)(=O)CC2CC2)C1` [Example 283, 1-{1-[(cyclopropylmethyl)sulfonyl]azetidin-3-yl}-3-[1-(2-fluorophenyl)-1H-indazol-4-yl]imidazolidin-2-one], the IC50 was determined as 2210 nM in assay [1] and 2550 nM in assay [2]. Consider `CN1CCN(c2cccc3c2cnn3-c2ccccc2F)C1=O` [Example 344, 1-[1-(2-fluorophenyl)-1H-indazol-4-yl]-3-methylimidazolidin-2-one], for which the 50% inhibitory concentration (IC50) in assay [1] was 7380 nM. On to `O=C(CCN1CCN(c2cccc3c2cnn3-c2ccccc2F)C1=O)N1CCC[C@H](F)C1` [Example 318, 1-[1-(2-fluorophenyl)-1H-indazol-4-yl]-3-{3-[(3S)-3-fluoropiperidin-1-yl]-3-oxopropyl}imidazolidin-2-one], for which the IC50 in assay [1] stood at 3470 nM; in assay [2] it was 3140 nM.

Turning to `O=C(CC1CCCC1)CN1CCN(c2cccc3c2cnn3-c2ccccc2F)C1=O` [Example 134, 1-(3-cyclopentyl-2-oxopropyl)-3-[1-(2-fluorophenyl)-1H-indazol-4-yl]imidazolidin-2-one], the IC50 in assay [2] turned out to be 1260 nM. Turning to `CC(C)OC1CN(C(=O)CN2CCN(c3cccc4c3cnn4-c3ccccc3F)C2=O)C1` [Example 67, 1-[1-(2-fluorophenyl)-1H-indazol-4-yl]-3-[2-(3-isopropoxyazetidin-1-yl)-2-oxoethyl]imidazolidin-2-one], the IC50 in assay [2] is 2430 nM. Take `CCCS(=O)(=O)N1CCN(c2cccc3c2cnn3-c2ccccc2F)C1=O` [Example 81, 1-[1-(2-fluorophenyl)-1H-indazol-4-yl]-3-(propylsulfonyl)imidazolidin-2-one]: the IC50 in assay [2] was found to be 4080 nM.

With `CO[C@H]1C[C@H](NC(=O)CN2CCN(c3cccc4c3cnn4-c3ccccc3F)C2=O)C1` [Example 326, 2-{3-[1-(2-fluorophenyl)-1H-indazol-4-yl]-2-oxoimidazolidin-1-yl}-N-(trans-3-methoxycyclobutyl)acetamide], in assay [1], the IC50 was determined as 5250 nM. As for `CC(C)(O)[C@H]1CCN(C(=O)CN2CCN(c3cccc4c3cnn4-c3ccccc3F)C2=O)C1` [Example 85, 1-[1-(2-fluorophenyl)-1H-indazol-4-yl]-3-{2-[(3S)-3-(2-hydroxypropan-2-yl)pyrrolidin-1-yl]-2-oxoethyl}imidazolidin-2-one], the IC50 in assay [2] amounted to 12300 nM.

For the compound `CC(C)C(C)(O)CN1CCN(c2cccc3c2cnn3-c2ccccc2F)C1=O` (centres unmarked) [Example 180, 1-[1-(2-fluorophenyl)-1H-indazol-4-yl]-3-(2-hydroxy-2,3-dimethylbutyl)imidazolidin-2-one], the IC50 in assay [2] is 3230 nM. As to `Cc1nc(CN2CCN(c3cccc4c3cnn4-c3ccccc3F)C2=O)co1` [Example 211, 1-[1-(2-fluorophenyl)-1H-indazol-4-yl]-3-[(2-methyl-1,3-oxazol-4-yl)methyl]imidazolidin-2-one], in assay [2], the IC50 came to 1900 nM.

Take `Cc1nc(CN2CCN(c3cccc4c3cnn4-c3ccc(F)cc3F)C2=O)cs1` [Example 243, 1-[1-(2,4-difluorophenyl)-1H-indazol-4-yl]-3-[(2-methyl-1,3-thiazol-4-yl)methyl]imidazolidin-2-one]: the IC50 in assay [2] is 1610 nM.
